In patent US8796298B2, “Combination of a B-Raf inhibitor: N-{3-[5-(2-Amino-4-pyrimidinyl)-2-(1,1- dimethylethyl)-1,3-thiazol-4-yl]-2-fluorophenyl}-2,6-difluorobenzenesulfonamide and the Akt inhibitor: N-{ (1S)-2-amino-1-[(3- fluorophenyl)methyl]ethyl}-5-chIoro-4-(4-chIoro- 1 -methyl- 1 H-pyrazol-5-yl)-2-10 …” (GlaxoSmithKline LLC, priority 2009, dated 2014):
Where two headings read alike, the source gives them in different places.

Assays:
HCT8 = experiment: Cell growth inhibition assay (Cell Titer Glo), HCT8; assay type: cell-based; conditions: Homo sapiens, HCT-8, 72 h; HCT8 colon; BRAF WT, KRAS G13D, PIK3CA E545K; 3 days; mean ± std; read-out: IC50 values, Single Agent
Description: (§1) Human colon tumor lines, Colo205, DLD1, HCC2998, HCT15, HCT8, HT29, KM-12, LS1034, LS174T, RKO, SW1463, SW480, SW837 and T84, and human breast tumor cell lines EFM19 and MDA-MB-175VII were cultured in RPMI 1640 medium containing 10% fetal bovine serum (FBS).
(§2) All cells were cultured for a minimum of 72 hours prior to cell plating. Cells were assayed in a 96-well tissue culture plate (NUNC 136102) of RPMI medium containing 10% FBS for all cells at 1,000 cells per well. […] ATP levels were determined by adding Cell Titer Glo® (Promega) according to the manufacturer's protocol. Briefly, Cell Titer Glo® was added each plate, incubated for 30 minutes then luminescent signal was read on the SpectraMax L plate reader with a 0.5 sec integration time.
(§3) Inhibition of cell growth was estimated after treatment with compound or combination of compounds for three days and comparing the signal to cells treated with vehicle (DMSO). Cell growth was calculated relative to vehicle (DMSO) treated control wells. […]
(§4) The combination effects on the response scale were quantified by Excess Over Highest Single Agent (EOHSA) based on the concept of nonlinear blending as described in detail by Peterson and Novick (2007) and Peterson (2010) [(2;3) [Peterson and Novick, 2007; Peterson, 2010]. […]

DLD1 = experiment: Cell growth inhibition assay (Cell Titer Glo), DLD1; assay type: cell-based; conditions: Homo sapiens, DLD-1, 72 h; DLD1 colon; BRAF WT, KRAS G13D, PIK3CA E545K, D549N; 3 days; read-out: IC50 values, Single Agent
Description: as §1, §2, §3, §4

[1] = test system: 10 colon lines without BRAF V600E mutation; experiment: Cell growth inhibition assay (Cell Titer Glo), colon lines without BRAF V600E mutation; assay type: cell-based; conditions: Homo sapiens; the other 10 colon lines without BRAF V600E mutation (KRAS wild type or mutated); read-out: IC50s, compound alone
Description: All cells were cultured for a minimum of 72 hours prior to cell plating. […] Cells were incubated in the presence of compounds for 3 days. ATP levels were determined by adding Cell Titer Glo® (Promega) according to the manufacturer's protocol. Briefly, Cell Titer Glo® was added each plate, incubated for 30 minutes then luminescent signal was read on the SpectraMax L plate reader with a 0.5 sec integration time.
(§5) Inhibition of cell growth was estimated after treatment with compound or combination of compounds for three days and comparing the signal to cells treated with vehicle (DMSO). Cell growth was calculated relative to vehicle (DMSO) treated control wells.
(§6) In general, a CI value <0.9, between 0.9 and 1.1, or >1.1 indicates synergy, additivity and antagonism, respectively. […]
(§7) EOHSA values are defined as increases in improvement (here, in ‘percentage points’ (ppts) difference) produced by the combination over the best single agent at its component dose level for the combination. For single agent and combination treatments, cells were exposed to compounds at a fixed-dose-ratio, and dose response curves were fit to the experimental data and analyzed using regression models. At specified total dose levels of IC50 along the dose response curve, the dose combination (corresponding to IC50) was determined for making EOHSA statistical inferences.

SW1463 = experiment: Cell growth inhibition assay (Cell Titer Glo), SW1463; assay type: cell-based; conditions: Homo sapiens, 72 h; SW1463 colon; BRAF WT, KRAS G12C, PIK3CA WT; 3 days; read-out: IC50 values, Single Agent
Description: as §1, §2, §3, §4

RKO colon line = experiment: Cell growth inhibition assay (Cell Titer Glo), RKO; assay type: cell-based; conditions: Homo sapiens
Description: as §1
(§8) All cells were cultured for a minimum of 72 hours prior to cell plating. Cells were assayed in a 96-well tissue culture plate (NUNC 136102) of RPMI medium containing 10% FBS for all cells at 1,000 cells per well. Approximately 24 hours after plating, cells were exposed to ten, three-fold serial dilutions of compound or the combination of the two agents at a constant molar to molar ratio of 1:10 Compound A to Compound B in RPMI media containing 10% FBS. Cells were incubated in the presence of compounds for 3 days. ATP levels were determined by adding Cell Titer Glo® (Promega) according to the manufacturer's protocol. Briefly, Cell Titer Glo® was added each plate, incubated for 30 minutes then luminescent signal was read on the SpectraMax L plate reader with a 0.5 sec integration time.
as §5
In general, a CI value <0.9, between 0.9 and 1.1, or >1.1 indicates synergy, additivity and antagonism, respectively. In general, the smaller the CI number, the greater is the strength of synergy.
as §7, with “The combination effects on the response scale were quantified by Excess Over Highest Single Agent (EOHSA) based on the concept of nonlinear blending as described in detail by Peterson and Novick (2007) and Peterson (2010) [(2;3) [Peterson and Novick, 2007; Peterson, 2010]. EOHSA values” for “EOHSA values”

EFM19 = experiment: Cell growth inhibition assay (Cell Titer Glo), EFM19; assay type: cell-based; conditions: Homo sapiens, EFM-19, 72 h; EFM19 breast; BRAF WT, KRAS WT, PIK3CA WT; 3 days; mean ± std; read-out: IC50 values, Single Agent
Description: as §1, §2, §3, §4

T84 = experiment: Cell growth inhibition assay (Cell Titer Glo), T84; assay type: cell-based; conditions: Homo sapiens, 72 h; T84 colon; BRAF WT, KRAS G13D, PIK3CA E542K; 3 days; read-out: IC50 values, Single Agent
Description: as §1, §2, §3, §4

Colo205 = experiment: Cell growth inhibition assay (Cell Titer Glo), Colo205; assay type: cell-based, Human; conditions: for IC50: Homo sapiens, COLO 205, 72 h, Colo205 colon, BRAF V600E, KRAS WT, PIK3CA WT, 3 days, mean ± std, read-out: IC50 values, Single Agent
Description: as §1, §8, §5, §6
The combination effects on the response scale were quantified by Excess Over Highest Single Agent (EOHSA) based on the concept of nonlinear blending as described in detail by Peterson and Novick (2007) and Peterson (2010) [(2;3) [Peterson and Novick, 2007; Peterson, 2010]. […] For single agent and combination treatments, cells were exposed to compounds at a fixed-dose-ratio, and dose response curves were fit to the experimental data and analyzed using regression models. At specified total dose levels of IC50 along the dose response curve, the dose combination (corresponding to IC50) was determined for making EOHSA statistical inferences.

SW837 = experiment: Cell growth inhibition assay (Cell Titer Glo), SW837; assay type: cell-based; conditions: Homo sapiens, 72 h; SW837 colon; BRAF WT, KRAS G12C, PIK3CA WT; 3 days; read-out: IC50 values, Single Agent
Description: as §1, §2, §3, §4

SW480 = experiment: Cell growth inhibition assay (Cell Titer Glo), SW480; assay type: cell-based; conditions: Homo sapiens, 72 h; SW480 colon; BRAF WT, KRAS G12C, PIK3CA WT; 3 days; mean ± std; read-out: IC50 values, Single Agent
Description: as §1, §2, §3, §4

MDA-MB-175VII = experiment: Cell growth inhibition assay (Cell Titer Glo), MDA-MB-175VII; assay type: cell-based; conditions: Homo sapiens, 72 h; MDA-MB-175VII breast; BRAF WT, KRAS WT, PIK3CA H1049L; 3 days; mean ± std; read-out: IC50 values, Single Agent
Description: as §1, §2, §3, §4

HT29 = experiment: Cell growth inhibition assay (Cell Titer Glo), HT29; assay type: cell-based, Human
Description: as §1, §2, §3, §4

LS1034 = experiment: Cell growth inhibition assay (Cell Titer Glo), LS1034; assay type: cell-based; conditions: Homo sapiens, LS-1034, 72 h; LS1034 colon; BRAF WT, KRAS A146T, PIK3CA WT; 3 days; read-out: IC50 values, Single Agent
Description: as §1, §2, §3, §4

KM-12 = experiment: Cell growth inhibition assay (Cell Titer Glo), KM-12; assay type: cell-based; conditions: Homo sapiens, KM12, 72 h; KM-12 colon; BRAF WT, KRAS WT, PIK3CA WT; 3 days; mean ± std; read-out: IC50 values, Single Agent
Description: as §1, §2, §3, §4

HCT15 = experiment: Cell growth inhibition assay (Cell Titer Glo), HCT15; assay type: cell-based; conditions: Homo sapiens, HCT-15, 72 h; HCT15 colon; BRAF WT, KRAS G13D, PIK3CA D549N, E545K; 3 days; mean ± std; read-out: IC50 values, Single Agent
Description: as §1, §2, §3, §4

HCC2998 = experiment: Cell growth inhibition assay (Cell Titer Glo), HCC2998; assay type: cell-based; conditions: Homo sapiens, HCC 2998, 72 h; HCC2998 colon; BRAF WT, KRAS A146T, PIK3CA WT; 3 days; read-out: IC50 values, Single Agent
Description: as §1, §2, §3, §4

[2] = 72 h, RKO colon, BRAF V600E, KRAS WT, PIK3CA H1047R, 3 days, mean ± std, read-out: IC50 values, Single Agent
[3] = RKO colon line, BRAF V600E and PIK3CA H1047R, single agent, read-out: IC50, compound alone

Row | Compound | IC50 (HCT8) [µM] | IC50 (DLD1) [µM] | IC50 [1] [µM] | IC50 (SW1463) [µM] | IC50 (RKO colon line; [2]) [µM] | IC50 (RKO colon line; [3]) [µM] | IC50 (EFM19) [µM] | IC50 (T84) [µM] | sensitivity to compound alone in words (Colo205; Colo205, BRAF V600E mutation line) | IC50 (Colo205) [µM] | IC50 (SW837) [µM] | IC50 (SW480) [µM] | IC50 (MDA-MB-175VII) [µM] | sensitivity to compound alone in words (HT29; HT29, BRAF V600E mutation line) | IC50 (LS1034) [µM] | IC50 (KM-12) [µM] | IC50 (HCT15) [µM] | IC50 (HCC2998) [µM] | IC50 (HT29; Homo sapiens, HT-29, 72 h, HT29 colon, BRAF V600E, KRAS WT, PIK3CA P449T, 3 days, mean ± std, read-out: IC50 values, Single Agent) [µM]
1 | CC(C)(C)c1nc(-c2cccc(NS(=O)(=O)c3c(F)cccc3F)c2F)c(-c2ccnc(N)n2)s1 [Compound A, N-{3-[5-(2-Amino-4-pyrimidinyl)-2-(1,1-dimethylethyl)-1,3-thiazol-4-yl]-2-fluorophenyl}-2,6-difluorobenzenesulfonamide] | > 10 | > 10 | > 10 | > 10 | 4.2 ± 4.03 | > 1 | > 10 | > 10 | highly sensitive | 0.013 ± 0.004 | > 10 | > 10 | > 10 | highly sensitive | > 10 | > 10 | > 10 | > 10 | –
2 | Cn1ncc(Cl)c1-c1cc(C(=O)N[C@H](CN)Cc2cccc(F)c2)sc1Cl [Compound B, N-{(1S)-2-amino-1-[(3-fluorophenyl)methyl]ethyl}-5-chloro-4-(4-chloro-1-methyl-1H-pyrazol-5-yl)-2-thiophenecarboxamide] | 1.55 ± 0.051 | > 10 | – | > 10 | 1.35 ± 0.614 | > 1 | 0.444 ± 0.285 | > 10 | – | 3.29 ± 0.242 | > 10 | 6.08 ± 0.154 | 0.844 ± 0.033 | – | > 10 | 4.45 ± 4.2 | 7.77 ± 1.69 | > 10 | 1.43 ± 0.073
